Patent publication US20080160006A1, “Nutrient Medium for Maintaining Neural Cells in Injured Nervous System” (priority 2001, published 2008)

Columns and labels:
[1] = system: human cortical brain cells (neurons vs glia); assay: Adult human cortical brain cells cultured in B27/Neurobasal A, immunostained for neurofilament and GFAP; type: cell-based; settings: for % GFAP (mean ± S.D.) / % Neurofilament (mean ± S.D.): addition to B27/Neurobasal A, after 6 days
Source text: (§1) GENERAL METHODS. Brain tissue was ethically obtained by informed consent from patients before surgery under protocols approved by the Springfield Committee for Research on Human Subjects and the UC Irvine IRB. […] Rather than using aspiration to remove all tissue, slices of tissue 1-3 mm thick were obtained from cortical access ports or tissue that was marginal to the lesion. Use of electrocautery was kept to a minimum to reduce oxyradicals and other neuron damage. […] Hibernate A contains D-glucose, pyruvate, balanced salts, amino acids, and vitamins. B27 contains 5 antioxidants and 15 other components. […] After transport on ice to a laminar flow sterile hood in the culture laboratory, meninges and white matter were removed from the tissue with a scalpel and forceps in a 35 mm dish in 2 ml transport medium. […] The cell suspension was enriched for neurons by centrifugation on a density gradient of Optiprep (Invitrogen). […] The diluted Optiprep was further diluted with transport medium (v/v) to make a gradient containing 4 steps of 1 ml in a 15 ml centrifuge tube: bottom (0.35:0.65), 0.25:0.75, 0.2:0.8, top (0.15:0.85). Up to 6 ml of cell suspension was layered over the Optiprep step gradient. […] Cells were plated at a density of 320/mm^2 onto glass coverslips coated with polylysine as previously described. Cells were cultured in Neurobasal™ A medium (Invitrogen) with 2 percent B27, 5 ng/ml FGF2 (basic human recombinant fibroblast growth factor, Invitrogen) and 0.5 mM glutamine in a humidified atmosphere of 9 percent O2, and 5 percent CO2 (Forma, Marietta, Ohio). […] EGF (20 ng/ml; murine, Invitrogen) and NT3 (100 ng/ml; recombinant, Regeneron) were added as indicated from 500× stock solutions in 1 percent BSA/PBS. Half of the medium was replaced with fresh medium every 3-4 days.
For immunocytology, cultures were rinsed twice in warm PBS and fixed for 10 minutes in 4 percent paraformaldehyde in PBS. After rinsing twice with PBS, cells for GFAP staining were postfixed for 20 minutes in acetic acid/ethanol (1:9, v/v) before rinsing again with PBS. Non-specific sites were blocked, and cells were permeabilized for 5 minutes in 5 percent normal goat serum, and 0.5 percent Triton X-100. Cells were incubated with primary antibodies for 1 hour at 22° C. in 5 percent goat serum, and 0.05 percent Triton as follows: mouse anti-neurofilament 200 (1:40, Sigma) with rabbit anti-cow GFAP (1:2000, Dako), or mouse anti-MAP2 (1:250, Boeringer-Mannheim) with rabbit anti-tau (1:2000). After rinsing four times with PBS, cells were incubated 1 hour at 22° C. with a rhodamine-conjugate of goat anti-rabbit IgG (heavy+light chain, 1:500, Tago) together with a cy2-conjugate of goat anti-mouse IgG (heavy+light chain, 1:100, Jackson). After rinsing four times in PBS, coverslips were mounted with Aquamount and imaged through a Nikon 60×/1.4 objective using a Spot cooled CCD camera (Diagnostic Instruments).
Human cortical brain tissue was obtained for culture from eleven consecutive surgical cases, including seven tumor cases, three cases of epilepsy, and one case of suprabulbar palsy. Patients ranged in age from 41 to 70 years.
Neuronal Characteristics of Isolated Cells. Cytoskeletal components were used as specific markers to distinguish neurons from glia. Microtubule associated proteins, MAP2 and tau, are generally associated with somatodendritic and axonal regions of neurons, respectively. Neurofilament 200 is a common intermediate filament protein restricted to neurons, and GFAP is restricted to astroglia. All preparations were immunostained for at least one of these markers.

human neurons = assay: Survival of human neurons versus FGF2 concentration with or without DHEAS (FIG. 1); type: cell-based
Source text: as §1

[2] = surgical sample 1, glioma r. temporal, 46 M
[3] = surgical sample 2, tumor r. temporal, 69 M

FGF2: basic human recombinant fibroblast growth factor, Invitrogen
% GFAP (mean ± S.D.) [1, 2]: 30 ± 7%
% Neurofilament (mean ± S.D.) [1, 2]: 67±7%
% GFAP (mean ± S.D.) [1, 3]: > 80%
% Neurofilament (mean ± S.D.) [1, 3]: < 10%
% Neurofilament (mean ± S.D.) ([1]; surgical sample 3, glioma l. frontal, 41 M): 84 ± 8%
% Neurofilament (mean ± S.D.) ([1]; surgical sample 4, epilepsy l. superior temp. gyrus, 33 F): 16 ± 5%
% Neurofilament (mean ± S.D.) ([1]; surgical sample 5, meningioma r. temporal, 70 µM): 17 ± 10%

EGF: trophic factor EGF, murine, Invitrogen (NSYPGCPSSYDGYCLNGGVCMHIESLDSYTCNCVIGYSGDRCQTRDLRWWELR; Epidermal growth factor; UniProt P01132 977-1029, looked up)
survival of neurofilament positive cells versus FGF2 alone ([1]; added in addition to FGF2, sample 4): no more efficacious

C[C@]12CC[C@H](OS(=O)(=O)O)CC1=CC[C@@H]1[C@@H]2CC[C@]2(C)C(=O)CC[C@@H]12 [DHEAS, dehydroepiandrosterone 3-sulphate]
lowering of the FGF2 ED50 for survival (human neurons; DHEAS at 10 μg/ml): 10 fold
survival at intermediate DHEAS concentrations (human neurons; DHEAS at 1 and 3 μg/ml, data not shown): intermediate survival between 0 and 10 μg/ml
survival with FGF2 at lower concentrations (FIG. 1) (human neurons; lower FGF2 concentrations): synergistic for survival with FGF2
